Assay [1] concerns ykt6. Nature of the assay: Ykt6 in red blood cells of FTI-treated mice. Type of assay: in vivo. To be noted: WT mice. From the text:
FIG. 20. Ykt6 in red blood cells of human and mice. A) Fractionation of RBCs/western blot of ykt6. Markers indicate efficient separation of cytosol (GAPDH) and membrane (Ank, Ankyrin-1). […] B) Ykt6 from RBCs of nTg of symptomatic 12 mo old A53T mice (ref 12) (n=3-5).
(See FIG. 20A). […] (See FIG. 20C).

The subject of another assay is ykt6 SNARE complexes. Nature of the assay: SEC/western blot of ykt6 SNARE complexes in FTI-treated cultures. Type of assay: cell-based, human. To be noted: SH-SY5Y cells, confirmed in A53T iPSn. On the procedure:
FIGS. 5A, 5B, 5C, 5D, 5E, 5F, and 5G. Reducing farnesyl-ykt6 enhances SNARE assembly and improves the lysosomal targeting of GCase. 5A) Ykt6 membrane shift analysis of SH-SY5Y cells expressing GFP-ykt6 wt or CS (n=3). 5B) Co-IP of GFP-ykt6 and bet1 in A53T iPSn (n=3). 5C) Ykt6 membrane shift analysis in FTI-treated SH-SY5Y wt a-syn cells or A53T iPSn (5 nM farnesyltransferase inhibitors (FTI) LNK-754 (FTI-1) or LNK-3248 (FTI-2) for 5 days) (n=4). Sec22b was measured to assess specificity. 5D) SEC/western blot of FTI-1 treated SH-SY5Y cells. Quantification is shown below. 5E) Co-IP of GFP-ykt6 wt or mutant ykt6-SS, (cannot be palmitoylated or farnesylated) in FTI-treated SHSY5Y cells (5 nM LNK-754, 5d) (n=2). 5F) Immunofluorescence of GCase and LAMP2A in FTI-treated H4 a-syn cells transfected with scrambled (scrb) or ykt6 shRNA (n=3). Scale bar=10 um. 5G) GCase maturation analysis in FTI-treated A53T iPSn by endo H (n=3). Values are the mean+/−SEM, *p<0.05.
Size exclusion chromatography analysis. Cultures or PD brain (cingulate cortex, previously described (Mazzulli et al., 2011)) were homogenized as described above in 1% Triton buffer, centrifuged at 100,000×g for 30 min at 4° C. […]
Treatment of cultures with farnesyltransferase inhibitors. […] Cultures were harvested and analyzed as described in the above sections.

For assay [2], the system named is ykt6. Nature of the assay: Measurement of farnesyl-ykt6 in SH-SY5Y cells. Type of assay: cell-based, human. As to conditions: SH-SY5Y cells expressing GFP-ykt6; 10 nM FTI, 48 hours. On the procedure:
FIGS. 14A, 14B, 14C, 14D, 14E, 14F, and 14G. The effects of FTI treatment on ykt6 and lysosomes. 14A) Farnesylation of ykt6 was measured in SH-SY5Y cells expressing GFP-ykt6. Cells treated with or without FTI (LNK-754) were cultured with farnesyl-azide to label farnesyl-modified proteins, immunoprecipitated with GFPaffinity beads, and then conjugated with phosphine-biotin. Biotin was detected with streptavidin-conjugated IRDye800, and normalized to total levels of GFP-ykt6. See methods for details. […] 14B) Membrane shift analysis of SH-SY5Y cells stably expressing GFP-ykt6-CS, treated with 5 nM FTI. Calnexin (CNX) and Coomassie blue (CBB) were used as a loading controls. 14C) Gel filtration/western blot analysis of FTI treated A53T iPSn. Ykt6 complex levels eluting at ca. 120A were quantified on the right (n=2). […] 14E) Raw quantification data of LAMP2A immunofluorescence intensity of individual cells from H4 cells treated with FTI, +/−ykt6 KD. Each data point represents LAMP2A intensity from individual cells, from 3 different culture wells. 14F) Analysis of ER-Golgi trafficking of GCase by endo H resistance after treatment with FTI in SH-SY5Y cells overexpressing wt a-syn (n=3). 14G) Western blot analysis of Triton X-100 soluble a-syn in SH-SY5Y wt a-syn cells after treatment with various concentrations of FTI for 5 days. For all quantifications, values are the mean+/−SEM, *p<0.05. […]

Molecules are shown by their SMILES.

Consider `C#Cc1cccc(-c2cc(=O)n(C)c3ccc([C@](O)(c4ccc(Cl)cc4)c4cncn4C)cc23)c1` [LNK-754], for which the “membrane Ykt6 in red blood cells” value is recorded as “increases membrane Ykt6” in the assay on ykt6 [1] and “activation of ykt6 in red blood cells” in the assay on ykt6 [1] (listed as FTI). In addition, the “levels of ykt6 SNARE complexes by SEC” value in the assay with ykt6 SNARE complexes is “elevated the levels of ykt6 SNARE complexes”. In addition, the “reduction of the farnesyl-ykt6 signal” value in the assay on ykt6 [2] was determined as 40%.

(Values after US12226410B2, “Methods for enhancing cellular clearance of pathological molecules via activation of the cellular protein ykt6” (NORTHWESTERN UNIVERSITY, priority 2019, dated 2025).)
